# System: CO2-laser-induced painful stimulus on UV(B) irradiated skin
# Test: Laser somatosensory evoked potentials (LSEP) analgesia study, peak-to-peak amplitude
# Assay type: in vivo, human
# Details: for Estimate (difference between Treatment A and Treatment B), peak-to-peak LSEP amplitude: single oral dose, 24 subjects, cross-over; for Analgesic effectiveness versus placebo (peak-to-peak LSEP amplitudes), in words: FIG. 1 and Table C
# Experimental: General Timing of Study: Each subject was treated on six different treatment days in a randomized, placebo-controlled, double-blind six sequence cross-over study, with each treatment being a different dosage combination of acetaminophen (“APAP”) and ibuprofen (“IBU”) administered in a random order. The total duration of the study per subject was about 46 days. The washout period between the six treatment days was about 7 days. About 2 to 14 days before receiving the first treatment, each subject participated in a one-day, pre-study examination visit.
# On each treatment day, each subject stayed for approximately 7 hours at the treatment center, and followed the schedule set forth below in Table A:
# Method of Pain Induction: A pulsed CO2 laser, which is commercially available from Synrad, Inc., under the tradename, “Synrad Infrared Gas Laser,” model E48−/−26W was used to induce painful stimuli in the desired skin location.
# Evaluation of Pain Relief: Laser induced somatosensory evoked potentials (LSEPs), which served as an objective-quantitative measurement of pain, were generating using Vertex-EEG readings collected using a MUX800/UBV800 Multiplexer and universal bio-amplifier with integrated 15 Hz-impedance measurement, both of which are commercially available from Rimkus Medizintechnik. Twelve artifact free EEG-sections of 3 second duration were averaged in two steps: (1.) 3×4 original sweeps; and (2.) 3×1 averaged sweeps, digitally filtered (Gaussian phase-free software filter on the basis of a Fast Fourier Transform (FFT), with ranges from 1.0 Hz to 12.5 Hz (first step) and 1.5 to 10.0 Hz (second step)). Means were analyzed for a time window of 600 ms after laser stimulation to identify and measure the components of the evoked potentials (latencies and amplitudes). The N1 and P2 components, which are the pain related components of the EEG-signal, were derived as described above and analyzed in accordance with the procedure set forth in Schaffler K., et al., “Analgesic effects of low-dose intravenous orphenadrine in the state of capsaicin hyperalgesia. A randomised, placebo-controlled, double-blind cross-over study using laser somatosensory evoked potentials obtained from capsaicin-irritated skin in healthy volunteers,” 54(10) Arzneimittel-Forschung. 673-9 (2004). The N1-P2-peak-to peak amplitudes as well as the amplitudes of the individual N1 and P2 components were determined from the Vertex-EEG reading, and the correlated pain response was thereby determined in accordance with the procedure generally set forth in Seibel, K., et al., “Comparison of Two Different Preparations of Ibuprofen with Regard to the Time Course of their Analgesic Effect,” 54(8) Arnzeimittel-Forschung 444-51 (2004). The LSEP recording at hour −2:05 served as baseline (=t0). Drug induced analgesia was reflected by an amplitude reduction versus control or comparator treatment.
# According to this procedure, a change in LSEP amplitude of about 1.0 to 3.0 μV was previously determined to be generally sufficient to allow for statistically significant discrimination between, for example, a given active agent vs. placebo, vs. other active agents, and/or vs. different dosages of the same active agent. An amplitude difference in the LSEP that exceeds about 2.0-2.5 μV (in peak-to-peak (PtP) amplitude) and > about 1.00-1.25 μV (for the single N1- and P2-components) was defined as clinically relevant.
# The procedure set forth in Example 1 was independently performed on 24 subjects in a randomized, placebo-controlled, double-blind 6 sequence cross-over study. The six ibuprofen/acetaminophen treatments administered on the treatment days consisted of two white caplets and 4 red tablets comprised of the doses set forth in Table B: […]
# [1] = Treatment B = Placebo, over the treatment period
SMILES,"Estimate (difference between Treatment A and Treatment B), peak-to-peak LSEP amplitude [1]","Analgesic effectiveness versus placebo (peak-to-peak LSEP amplitudes), in words","Estimate (difference between Treatment A and Treatment B), peak-to-peak LSEP amplitude (Treatment B = APAP250 + IBU300)","Estimate (difference between Treatment A and Treatment B), peak-to-peak LSEP amplitude (Treatment B = APAP500 + IBU200)","Estimate (difference between Treatment A and Treatment B), peak-to-peak LSEP amplitude (Treatment B = APAP750 + IBU100)","Estimate (difference between Treatment A and Treatment B), peak-to-peak LSEP amplitude (Treatment B = IBU400)"
"CC(C)Cc1ccc(C(C)C(=O)O)cc1 (centres unmarked) [IBU 400 mg, ibuprofen]",−4.4134,significantly more effective analgesics than the placebo,–,–,–,–
"CC(=O)Nc1ccc(O)cc1 [APAP 1000 mg, acetaminophen]",−4.4020,significantly more effective analgesics than the placebo,1.6417,1.5389,2.7487,0.01133

# Reference: US8580856B2, “Acetaminophen/ibuprofen combinations and method for their use” (McNeil-PPC, Inc., priority 2006, dated 2013)
